Test results reported in patent US10023570B2 (Array BioPharma, Inc., priority 2015, dated 2018).

Biological target: human KDR protein in HEK-293 cells (Homo sapiens (Human), UniProt P35968)
Assay: KDR Cell Assay (phospho-KDR in HEK-293 cells expressing inducible KDR)
Type: cell-based
Settings: pKDR Cell HEK 10% FBS IC50, HEK-293 cells expressing inducible KDR, VEGF stimulated
In short: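 HEK-293 cells with inducible human KDR were treated with compound for 1 h in DMEM (0.25% DMSO final), then lysed. Phospho-KDR was quantified by Meso Scale immunoassay, expressed as percent of control, and IC50 taken where a 4-parameter logistic fit crossed 50 POC.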

Chain of human KDR protein in HEK-293 cells (P35968 20-1356): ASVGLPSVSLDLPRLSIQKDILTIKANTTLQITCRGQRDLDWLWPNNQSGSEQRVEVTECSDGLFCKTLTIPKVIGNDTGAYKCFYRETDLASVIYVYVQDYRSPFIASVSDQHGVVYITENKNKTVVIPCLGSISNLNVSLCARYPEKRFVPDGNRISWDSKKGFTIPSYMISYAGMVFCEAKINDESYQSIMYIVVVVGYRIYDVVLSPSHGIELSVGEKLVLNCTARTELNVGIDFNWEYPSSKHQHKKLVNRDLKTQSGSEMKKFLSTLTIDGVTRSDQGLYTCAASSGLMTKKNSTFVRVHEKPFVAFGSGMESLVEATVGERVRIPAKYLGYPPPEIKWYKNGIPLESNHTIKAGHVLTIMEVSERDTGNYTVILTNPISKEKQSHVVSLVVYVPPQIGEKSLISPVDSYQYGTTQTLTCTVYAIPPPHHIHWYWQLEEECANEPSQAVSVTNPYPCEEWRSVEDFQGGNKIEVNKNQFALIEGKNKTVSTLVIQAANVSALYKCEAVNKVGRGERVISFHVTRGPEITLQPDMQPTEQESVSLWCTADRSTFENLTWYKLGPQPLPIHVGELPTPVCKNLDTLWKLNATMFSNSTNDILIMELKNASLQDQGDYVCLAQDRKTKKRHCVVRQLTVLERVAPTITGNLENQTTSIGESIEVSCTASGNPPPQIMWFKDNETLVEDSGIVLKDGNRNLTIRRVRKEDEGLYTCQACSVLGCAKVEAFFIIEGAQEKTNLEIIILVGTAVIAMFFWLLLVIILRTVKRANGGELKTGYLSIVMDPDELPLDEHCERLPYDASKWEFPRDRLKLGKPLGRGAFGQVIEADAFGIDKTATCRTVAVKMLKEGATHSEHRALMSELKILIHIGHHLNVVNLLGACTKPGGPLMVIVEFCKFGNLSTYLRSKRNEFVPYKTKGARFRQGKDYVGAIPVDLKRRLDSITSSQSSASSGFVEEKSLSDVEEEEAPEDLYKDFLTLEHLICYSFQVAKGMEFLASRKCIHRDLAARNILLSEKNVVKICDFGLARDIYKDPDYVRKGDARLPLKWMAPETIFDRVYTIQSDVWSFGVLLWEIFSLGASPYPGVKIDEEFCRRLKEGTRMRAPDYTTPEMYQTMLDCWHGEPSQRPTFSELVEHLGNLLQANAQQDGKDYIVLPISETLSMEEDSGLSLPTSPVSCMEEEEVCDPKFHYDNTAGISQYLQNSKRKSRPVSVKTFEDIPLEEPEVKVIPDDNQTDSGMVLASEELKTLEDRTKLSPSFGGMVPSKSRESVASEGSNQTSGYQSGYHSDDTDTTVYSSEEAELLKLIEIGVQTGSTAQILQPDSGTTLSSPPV

Question: For Cn1cc(-c2cc(-c3ccc(N4CCC5(CN(Cc6ccccc6)C5)C4)nc3)c3c(C#N)cnn3c2)cn1 [Example 558, 4-(6-(2-benzyl-2,6-diazaspiro[3.4]octan-6-yl)pyridin-3-yl)-6-(1-methyl-1H-pyrazol-4-yl)pyrazolo[1,5-a]pyridine-3-carbonitrile], which IC50 is on record?
Answer: The IC50 was 548 nM.

Question: Which IC50 does the source give for Cn1cc(-c2cc(-c3ccc(N4CCC5(CC4)CN(C(=O)C4CCCCC4)C5)nc3)c3c(C#N)cnn3c2)cn1 [Example 495, 4-(6-(2-(cyclohexanecarbonyl)-2,7-diazaspiro[3.5]nonan-7-yl)pyridin-3-yl)-6-(1-methyl-1H-pyrazol-4-yl)pyrazolo[1,5-a]pyridine-3-carbonitrile] here?
Answer: The IC50 was 771 nM.

Question: How did the IC50 turn out when Cn1cc(-c2cc(-c3ccc(N4CC5(CCN(Cc6ccccc6)CC5)C4)nc3)c3c(C#N)cnn3c2)cn1 [Example 485, 4-(6-(7-benzyl-2,7-diazaspiro[3.5]nonan-2-yl)pyridin-3-yl)-6-(1-methyl-1H-pyrazol-4-yl)pyrazolo[1,5-a]pyridine-3-carbonitrile] was run?
Answer: The IC50 was 4800 nM.

Question: COCCN1CCN(c2ccc(-c3cc(-c4cnn(C)c4)cn4ncc(C#N)c34)cn2)CC1 [Example 396, 4-(6-(4-(2-methoxyethyl)piperazin-1-yl)pyridin-3-yl)-6-(1-methyl-1H-pyrazol-4-yl)pyrazolo[1,5-a]pyridine-3-carbonitrile] was tested. Which IC50 did it give?
Answer: The IC50 was 1460 nM.

Question: Cn1cc(-c2cc(-c3ccc(N4CCN(CCc5ccccc5)CC4)nc3)c3c(C#N)cnn3c2)cn1 [Example 411, 6-(1-methyl-1H-pyrazol-4-yl)-4-(6-(4-phenethylpiperazin-1-yl)pyridin-3-yl)pyrazolo[1,5-a]pyridine-3-carbonitrile] was tested. Which IC50 did it give?
Answer: Its IC50 is 263 nM.

Question: CCC(CC)C(=O)N1CC2(CCN(c3ccc(-c4cc(-c5cnn(C)c5)cn5ncc(C#N)c45)cn3)CC2)C1 [Example 496, 4-(6-(2-(2-ethylbutanoyl)-2,7-diazaspiro[3.5]nonan-7-yl)pyridin-3-yl)-6-(1-methyl-1H-pyrazol-4-yl)pyrazolo[1,5-a]pyridine-3-carbonitrile] was tested. Which IC50 did it give?
Answer: Its IC50 is 2120 nM.

Question: How did the IC50 turn out when Cn1cc(-c2cc(-c3ccc(C4CCN(Cc5ccccc5)C4)nc3)c3c(C#N)cnn3c2)cn1 (stereo not drawn) [Example 582, 4-(6-(1-benzylpyrrolidin-3-yl)pyridine-3-yl)-6-(1-methyl-1H-pyrazol-4-yl)pyrazolo[1,5-a]pyridine-3-carbonitrile] was run?
Answer: The IC50 was 561 nM.

Question: Which IC50 does the source give for Cn1cc(-c2cc(-c3ccc(N4CCN(C(=O)N5CCN6CCCC6C5)CC4)nc3)c3c(C#N)cnn3c2)cn1 (stereo not drawn) [Example 381, 6-(1-methyl-1H-pyrazol-4-yl)-4-(6-(4-(octahydropyrrolo[1,2-a]pyrazine-2-carbonyl)piperazin-1-yl)pyridin-3-yl)pyrazolo[1,5-a]pyridine-3-carbonitrile] here?
Answer: Its IC50 is 811 nM.

Same assay, conditions: pKDR Cell HEK 10% FBS IC50, HEK-293 cells expressing inducible KDR, VEGF stimulated, 10% FBS

Question: With CN(C(=O)N1CCN(c2ccc(-c3cc(-c4cnn(C)c4)cn4ncc(C#N)c34)cn2)CC1)c1ccccc1 [Example 109, 4-(5-(3-cyano-6-(1-methyl-1H-pyrazol-4-yl)pyrazolo[1,5-a]pyridin-4-yl)pyridin-2-yl)-N-methyl-N-phenylpiperazine-1-carboxamide] as the compound, how does the IC50 read?
Answer: The IC50 was 360 nM.

Question: With Cn1cc(-c2cc(-c3ccc(N4[C@@H]5CC[C@H]4C[C@@H](O)C5)nc3)c3c(C#N)cnn3c2)cn1 [Example 199, 4-(6-((1R,3r,5S)-3-hydroxy-8-azabicyclo[3.2.1]octan-8-yl)pyridin-3-yl)-6-(1-methyl-1H-pyrazol-4-yl)pyrazolo[1,5-a]pyridine-3-carbonitrile] as the compound, how does the IC50 read?
Answer: Its IC50 is 565 nM.

Question: COC(=O)N1CCN(c2ccc(-c3cc(-c4cnn(C)c4)cn4ncc(C#N)c34)cc2)CC1 [Example 298, Methyl 4-(4-(3-cyano-6-(1-methyl-1H-pyrazol-4-yl)pyrazolo[1,5-a]pyridin-4-yl)phenyl)piperazine-1-carboxylate] was tested. Which IC50 did it give?
Answer: The IC50 was 1830 nM.

Question: With Cn1cc(-c2cc(-c3ccc(N4CCC5(CCN(C(=O)OC(C)(C)C)C5)CC4)nc3)c3c(C#N)cnn3c2)cn1 [Example 204, tert-butyl 8-(5-(3-cyano-6-(1-methyl-1H-pyrazol-4-yl)pyrazolo[1,5-a]pyridin-4-yl)pyridin-2-yl)-2,8-diazaspiro[4.5]decane-2-carboxylate] as the compound, how does the IC50 read?
Answer: Its IC50 is 429 nM.

Question: For C[C@@H](C(=O)N1CCN(c2ccc(-c3cc(-c4cnn(C)c4)cn4ncc(C#N)c34)cn2)CC1)c1ccccc1 [Example 14, (R)-6-(1-methyl-1H-pyrazol-4-yl)-4-(6-(4-(2-phenylpropanoyl)piperazin-1-yl)pyridin-3-yl)pyrazolo[1,5-a]pyridine-3-carbonitrile], which IC50 is on record?
Answer: Its IC50 is 1780 nM.

Question: How did the IC50 turn out when Cn1cc(-c2cc(-c3ccc(N4CCN([C@@H]5COC[C@H]5O)CC4)nc3)c3c(C#N)cnn3c2)cn1 [Example 159, 4-(6-(4-((3r,4s)-4-hydroxytetrahydrofuran-3-yl)piperazin-1-yl)pyridin-3-yl)-6-(1-methyl-1H-pyrazol-4-yl)pyrazolo[1,5-a]pyridine-3-carbonitrile] was run?
Answer: Its IC50 is 1300 nM.

Question: For CN(C)CC(=O)N1CC2CCC(C1)N2c1ccc(-c2cc(-c3cnn(C)c3)cn3ncc(Cl)c23)cn1 [Example 336, 1-(8-(5-(3-chloro-6-(1-methyl-1H-pyrazol-4-yl)pyrazolo[1,5-a]pyridin-4-yl)pyridin-2-yl)-3,8-diazabicyclo[3.2.1]octan-3-yl)-2-(dimethylamino)ethanone], which IC50 is on record?
Answer: The IC50 was 614 nM.

Question: For Cn1cc(-c2cc(-c3ccc(N4CCN(C(=O)C5(c6cccc(Cl)c6)CC5)CC4)nc3)c3c(C#N)cnn3c2)cn1 [Example 356, 4-(6-(4-(1-(3-chlorophenyl)cyclopropane-1-carbonyl)piperazin-1-yl)pyridin-3-yl)-6-(1-methyl-1H-pyrazol-4-yl)pyrazolo[1,5-a]pyridine-3-carbonitrile 2,2,2-trifluoroacetate], which IC50 is on record?
Answer: The IC50 was 126 nM.

Question: Cc1cc(C(=O)N2CCN(c3ccc(-c4cc(-c5cnn(C)c5)cn5ncc(C#N)c45)cn3)CC2)no1 [Example 37, 6-(1-methyl-1H-pyrazol-4-yl)-4-(6-(4-(5-methylisoxazole-3-carbonyl)piperazin-1-yl)pyridin-3-yl)pyrazolo[1,5-a]pyridine-3-carbonitrile 2,2,2-trifluoroacetate] was tested. Which IC50 did it give?
Answer: The IC50 was 91.2 nM.

Question: With Cn1cc(-c2cc(-c3ccc(N4CCN(C(=O)OC(C)(C)C)C5(CC5)C4)nc3)c3c(C#N)cnn3c2)cn1 [Example 166, tert-butyl 7-(5-(3-cyano-6-(1-methyl-1H-pyrazol-4-yl)pyrazolo[1,5-a]pyridin-4-yl)pyridin-2-yl)-4,7-diazaspiro[2.5]octane-4-carboxylate] as the compound, how does the IC50 read?
Answer: Its IC50 is 1990 nM.

Question: Cn1cc(-c2cc(-c3ccc(N4CCN(C(=O)[C@@H](O)c5ccccc5)CC4)nc3)c3c(C#N)cnn3c2)cn1 [Example 6, (S)-4-(6-(4-(2-hydroxy-2-phenylacetyl)piperazin-1-yl)pyridin-3-yl)-6-(1-methyl-1H-pyrazol-4-yl)pyrazolo[1,5-a]pyridine-3-carbonitrile] was tested. Which IC50 did it give?
Answer: The IC50 was 115 nM.

Question: Which IC50 does the source give for Cn1cc(-c2cc(-c3ccc(N4CCN(C(=O)C5(O)CC5)CC4)nc3)c3c(C#N)cnn3c2)cn1 [Example 81, 4-(6-(4-(1-hydroxycyclopropane-1-carbonyl)piperazin-1-yl)pyridin-3-yl)-6-(1-methyl-1H-pyrazol-4-yl)pyrazolo[1,5-a]pyridine-3-carbonitrile] here?
Answer: The IC50 was 762 nM.

Question: Cc1cc(-c2cc(-c3ccc(N4CCN(C(=O)CC(C)(C)C)CC4)cc3)c3c(C#N)cnn3c2)n[nH]1 [Example 310, 4-(4-(4-(3,3-dimethylbutanoyl)piperazin-1-yl)phenyl)-6-(5-methyl-1H-pyrazol-3-yl)pyrazolo[1,5-a]pyridine-3-carbonitrile] was tested. Which IC50 did it give?
Answer: Its IC50 is 1760 nM.
